Source: patent US9926317B2, “Inhibitors of the renal outer medullary potassium channel” (Merck Sharp & Dohme Corp., priority 2014, dated 2018)

Biological target: T1, ROMK (Kir1.1) channel (Homo sapiens, UniProt P48048)
T1 sequence (P48048 1-391): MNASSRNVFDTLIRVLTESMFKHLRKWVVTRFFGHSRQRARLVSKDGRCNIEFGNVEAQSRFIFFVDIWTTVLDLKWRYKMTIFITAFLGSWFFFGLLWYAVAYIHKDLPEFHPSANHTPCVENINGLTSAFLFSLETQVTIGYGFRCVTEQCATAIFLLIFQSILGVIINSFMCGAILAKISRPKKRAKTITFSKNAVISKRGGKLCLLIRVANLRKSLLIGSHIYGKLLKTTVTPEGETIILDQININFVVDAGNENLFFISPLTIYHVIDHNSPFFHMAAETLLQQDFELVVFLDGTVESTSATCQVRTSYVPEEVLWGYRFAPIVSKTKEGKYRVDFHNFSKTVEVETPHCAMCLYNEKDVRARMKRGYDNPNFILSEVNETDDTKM
Assay: Thallium Flux Assay
Assay type: cell-based
Description: The compounds of Formula I according to the invention are inhibitors of ROMK, and therefore could be used as diuretic and/or natriuretic agents. ROMK inhibitors may be used to help to increase urination and increase urine volume and also to prevent or reduce reabsorption of sodium in the kidneys leading to increased excretion of sodium and water. Therefore, the compounds could be used for treatment or prophylaxis or both of disorders that benefit from increased excretion of water and sodium from the body. Accordingly, the compounds of this invention could be used in a method for inhibiting ROMK comprising administering a compound of Formula I in a ROMK-inhibitory effective amount to a patient in need thereof. This also encompasses the use of the compounds for inhibiting ROMK in a patient comprising administering a compound of claim 1 in a therapeutically effective amount to a patient in need of diueresis, natriuresis or both. […] Moreover, this invention also relates to the use of the compounds of Formula I or salts thereof to validate in vitro assays, for example but not limited to the Thallium Flux Assay described herein.
The following Thallium Flux Assay was performed on each of the final product compounds in the Examples.
A Thallium Flux Assay was performed on the compounds of the Examples. This assay has been described previously; see, e.g., PCT Published Application WO 2013/062900.

| IC50 [nM] | Compound |
| --- | --- |
| 176 | CC1=C(N2CCC3(CCN(CC(O)c4ccc(-n5cnnc5)cc4)CC3)C2=O)COC1=O (racemic) [Example 2, 8-(2-(4-(4H-1,2,4-triazol-4-yl)phenyl)-2-hydroxyethyl)-2-(4-methyl-5-oxo-2,5-dihydrofuran-3-yl)-2,8-diazaspiro[4.5]decan-1-one] |
| 7 | CC1=C(N2CCC3(CCN(C[C@H](O)c4ccc(-n5ncnn5)cc4)CC3)C2=O)COC1=O [Example 1, (R)-8-(2-(4-(2H-tetrazol-2-yl)phenyl)-2-hydroxyethyl)-2-(4-methyl-5-oxo-2,5-dihydrofuran-3-yl)-2,8-diazaspiro[4.5]decan-1-one] |
| 5 | C[C@H]1CC2(CCN(C[C@H](O)c3ccc(-n4ncnn4)cc3)CC2)C(=O)N1C1=CC(=O)OC1 [Example 6, (S)-8-((R)-2-(4-(2H-tetrazol-2-yl)phenyl)-2-hydroxyethyl)-3-methyl-2-(5-oxo-2,5-dihydrofuran-3-yl)-2,8-diazaspiro[4.5]decan-1-one] |
| 248 | CC1=C(N2CCC3(CCN(CC(O)c4ccc(-n5cnnc5)nc4)CC3)C2=O)COC1=O (racemic) [Example 3, 8-(2-(6-(4H-1,2,4-triazol-4-yl)pyridin-3-yl)-2-hydroxyethyl)-2-(4-methyl-5-oxo-2,5-dihydrofuran-3-yl)-2,8-diazaspiro[4.5]decan-1-one] |
| 7 | CC1=C(N2CCC3(CCN(C[C@@H](O)c4ccc(-n5ncnn5)cc4)CC3)C2=O)COC1=O [Example 4, (S)-8-(2-(4-(2H-tetrazol-2-yl)phenyl)-2-hydroxyethyl)-2-(4-methyl-5-oxo-2,5-dihydrofuran-3-yl)-2,8-diazaspiro[4.5]decan-1-one] |
| 3 | C[C@H]1CC2(CCN(C[C@@H](O)c3ccc(-n4ncnn4)cc3)CC2)C(=O)N1C1=CC(=O)OC1 [Example 5, (S)-8-((S)-2-(4-(2H-tetrazol-2-yl)phenyl)-2-hydroxyethyl)-3-methyl-2-(5-oxo-2,5-dihydrofuran-3-yl)-2,8-diazaspiro[4.5]decan-1-one] |
